Measurements from patent US20250114424A1, “PLANT EXTRACT-BASED COMPOSITION AND ITS USE FOR TREATING GLUCOSE METABOLISM DISORDERS” (ESSERRE PHARMA SRL, priority 2021, published 2025).

Columns and labels:
[1] = tested on: subjects with type II diabetes mellitus; settings: 500 mg daily for 6 weeks; cited from earlier work
[2] = cited from earlier work
[3] = tested on: rats with streptozocin-induced diabetes; settings: 40 mg/kg for 30 days; cited from earlier work
[4] = tested on: semi-professional cyclists; settings: single dose of 500 mg; cited from earlier work
[5] = in vivo; cited from earlier work
incidence of diabetes = settings: pharmacological treatment vs lifestyle changes (58%); cited from earlier work
[6] = tested on: adult individuals with dysglycaemia (baseline blood glucose between 100 and 125 mg/dL); assay: Clinical evaluation of the efficacy of the composition: double-blind, placebo-controlled pilot clinical study, 12 weeks; format: in vivo, humans
Protocol: A single-centre, […], double-blind, placebo-controlled, pilot clinical study was conducted to evaluate the efficacy of the composition object of the present invention on humans in reducing insulin resistance-related risk factors. The study was carried out in accordance with the guidelines of the Helsinki Declaration and approved by the Ethics Committee of the Hospital. 100 adult individuals of both sexes were enrolled (47 women and 53 men, aged 20 to 75 years) with dysglycaemia (baseline blood glucose between 100 and 125 mg/dL on at least two consecutive occasions), in primary prevention for cardiovascular disease.
Exclusion criteria: dysglycaemia secondary to pathological or iatrogenic causes, systemic diseases associated with dysglycaemia, uncompensated dysthyroidism, treatment with drugs potentially interacting with glucose metabolism (for example corticosteroids, atypical antipsychotics).
The subjects enrolled were randomized into 5 groups, each consisting of 20 individuals: • Group A: 1 tablet of active (COMP) twice daily • Group B: 1 placebo tablet twice daily • Group C: 1 tablet of lemon extract 250 mg twice daily • Group D: 1 tablet of blood orange extract 100 mg twice daily • Group E: 1 tablet of chromium 100 mcg twice daily
All the enrolled subjects were subjected, 14 days prior to enrolment (T-14), to a pre-enrolment visit with blood tests to assess meeting the inclusion criteria. The individuals who met the TO inclusion criteria underwent a randomization visit at which the respective treatment was assigned and blood tests were performed in relation to the reference parameters.
The study lasted 12 weeks.
At the end of treatment (T12), the subjects were subjected to an end-of-study visit and blood tests.
The parameters investigated in the study are: Body mass index, systolic and diastolic blood pressure, glycated haemoglobin (HbAlc) fasting plasma glucose (FPG), fasting insulinemia (FPI), HOMA-index, triglycerides, gammaGT, creatinine phosphokinase (CPK).
The treatment called “active” or “COMPOSITION (COMP)” consists of a 570 mg tablet consisting of 250 mg lemon extract, 100 mg blood orange extract, 100 mcg chromium (as chromium picolinate), in addition to excipients such as calcium phosphate, magnesium stearate, silicon dioxide, hydroxypropyl cellulose, mono- and di-glycerides of fatty acids, microcrystalline cellulose, yellow iron oxide as a dye, coating agents. The treatment called “placebo” consists of a tablet equal in shape, weight, colour size and flavour to the active tablet but containing “inert” material for the desired effect and consists of: microcrystalline cellulose, magnesium stearate, silicon dioxide, calcium phosphate, chlorophylline dye, yellow iron oxide dye, coating agents.
The treatments related to groups C, D and E consist of one tablet equal in appearance to the tablets of groups A and B but consisting of the single active ingredient, as described above in addition to excipients.
The treatment tablets were packaged in anonymous white bottles, showing only the batch number consisting of an alphanumeric code and the expiration date. Neither the investigator nor the study subjects knew the contents of the bottles. The bottles of each treatment were placed in cardboard boxes containing a letter in a sealed envelope with reference to the batch number and content, to be opened only in case of need, as in cases of serious adverse events. After randomization, each study participant was given the bottle with 60 tablets for the specific treatment of the group to which they belonged.
All the subjects were instructed to take one tablet in the morning and one in the evening for 12 weeks.

[7] = 12-Week follow-up, 1 tablet twice daily

COc1ccc([C@@H]2CC(=O)c3c(O)cc(O[C@@H]4O[C@H](CO[C@@H]5O[C@@H](C)[C@H](O)[C@@H](O)[C@H]5O)[C@@H](O)[C@H](O)[C@H]4O)cc3O2)cc1O [hesperidin, 3′,5,7-trihydroxy-4′-methoxy-flavanone-7-rhamnoglucoside]
inflammation and blood pressure [1]: reduced inflammation and blood pressure
water solubility [2]: poor water solubility
fasting glycaemia, insulinemia and glycated haemoglobin [3]: reduced fasting glycaemia, insulinemia and glycated haemoglobin
physical performance and oxidative stress [4]: improved physical performance and modulated oxidative stress
bioavailability [5]: low bioavailability

CN(C)C(=N)N=C(N)N [metformin]
reduction in the incidence of diabetes (incidence of diabetes): 31%

chromium picolinate
BMI [6, 7]: 26.2 ± 1.0 kg/m2
CPK [6, 7]: 133 ± 22 U/L
DBP [6, 7]: 84 ± 4 mmHg
FPG [6, 7]: 112 ± 4 mg/dL
FPI [6, 7]: 20.9 ± 1.1 μU/ml
Gamma-GT [6, 7]: 27 ± 6 U/L
HbA1c [6, 7]: 6.4 ± 0.1%
SBP [6, 7]: 130 ± 7 mmHg
TG [6, 7]: 152 ± 10 mg/dL
HOMA-IR ([6]; 12-Week follow-up, 1 tablet twice daily, HOMA-IR=(FPG*FPI)/405): 5.7 ± 1.8
BMI ([6]; Baseline): 26.2 ± 1.0 kg/m2
CPK ([6]; Baseline): 134 ± 25 U/L
DBP ([6]; Baseline): 85 ± 6 mmHg
FPG ([6]; Baseline): 117 ± 5 mg/dL
FPI ([6]; Baseline): 22.9 ± 1.0 μU/ml
Gamma-GT ([6]; Baseline): 24 ± 9 U/L
HbA1c ([6]; Baseline): 6.4 ± 0.3%
SBP ([6]; Baseline): 131 ± 5 mmHg
TG ([6]; Baseline): 159 ± 12 mg/dL
HOMA-IR ([6]; Baseline, HOMA-IR=(FPG*FPI)/405): 6.6 ± 1.2
Observed efficacy rate (%), Reduction of FPG (−) ([6]; Chromium alone 100 mcg, Group E of example 7, 12 weeks): −4.2%
reductions in HbAlc, FPG, FPI, HOMA-index, triglycerides (statistical significance) ([6]; after 12 weeks of treatment, with respect to baseline and placebo): did not show statistically significant reductions
reduction of fasting insulinemia (FPI) ([6]; after 12 weeks vs baseline): 4%
reduction of fasting plasma glucose (FPG) ([6]; after 12 weeks vs baseline): 4.2%
reduction of glycated haemoglobin (HbAlc) ([6]; after 12 weeks vs baseline): did not achieve reductions
reduction of HOMA index ([6]; after 12 weeks vs baseline, HOMA-IR=(FPG*FPI)/405): 13%
